Patent US9034921B2, “Diphenylmethane derivatives as SGLT2 inhibitors” (GREEN CROSS CORPORATION, priority 2011, dated 2015)

Each molecule was assayed against human SGLT2 (Homo sapiens (Human), UniProt P31639) (assay: Inhibitory effects on human SGLT2 activities (14C-AMG uptake, sodium-dependent glucose transport assay)). Conditions: CHO cells stably expressing hSGLT2, 37° C., 2 h, single determinations.
Format: cell-based
Source text: Test 1: Cloning and Cell Line Construction for Human SGLT2
Human SGLT2 (hSGLT2) gene was amplified by PCR from cDNA-Human Adult Normal Tissue Kidney (Invitrogen). The hSGLT2 sequence was cloned into pcDNA3.1(+) for mammalian expression and stably transfected into chinese hamster ovary (CHO) cells. SGLT2-expressing clones were selected based on resistance to G418 antibiotic (Geneticin) and activity in the ^14C-α-methyl-D-glucopyranoside (^14C-AMG) uptake assay.
Test 2: Inhibitory Effects on Human SGLT2 Activities
For sodium-dependent glucose transport assay, cells expressing hSGLT2 were seeded into a 96-well culture plate at a density of 5×10^4 cells/well in RPMI medium 1640 containing 10% fetal bovine serum. The cells were used 1 day after plating. They were incubated in pretreatment buffer (10 mM HEPES, 5 mM Tris, 140 mM choline chloride, 2 mM KCl, 1 mM CaCl2, and 1 mM MgCl2, pH 7.4) at 37° C. for 10 min. They were then incubated in uptake buffer (10 mM HEPES, 5 mM Tris, 140 mM NaCl, 2 mM KCl, 1 mM CaCl2, 1 mM MgCl2, and 1 mM ^14C-nonlabeled AMG pH 7.4) containing ^14C-labeled AMG (8 μM) and the inventive compound or dimethyl sulfoxide (DMSO) vehicle at 37° C. for 2 h. Cells were washed twice with washing buffer (pretreatment buffer containing 10 mM AMG at room temperature) and then the radioactivity was measured using a liquid scintillation counter. IC50 was determined by nonlinear regression analysis using GraphPad PRISM [Katsuno, K. et al. J. Pharmacol. Exp. Ther. 2007, 320, 323-330; Han, S. et al. Diabetes, 2008, 57, 1723-1729].

Sequence of human SGLT2 (P31639 whole entry): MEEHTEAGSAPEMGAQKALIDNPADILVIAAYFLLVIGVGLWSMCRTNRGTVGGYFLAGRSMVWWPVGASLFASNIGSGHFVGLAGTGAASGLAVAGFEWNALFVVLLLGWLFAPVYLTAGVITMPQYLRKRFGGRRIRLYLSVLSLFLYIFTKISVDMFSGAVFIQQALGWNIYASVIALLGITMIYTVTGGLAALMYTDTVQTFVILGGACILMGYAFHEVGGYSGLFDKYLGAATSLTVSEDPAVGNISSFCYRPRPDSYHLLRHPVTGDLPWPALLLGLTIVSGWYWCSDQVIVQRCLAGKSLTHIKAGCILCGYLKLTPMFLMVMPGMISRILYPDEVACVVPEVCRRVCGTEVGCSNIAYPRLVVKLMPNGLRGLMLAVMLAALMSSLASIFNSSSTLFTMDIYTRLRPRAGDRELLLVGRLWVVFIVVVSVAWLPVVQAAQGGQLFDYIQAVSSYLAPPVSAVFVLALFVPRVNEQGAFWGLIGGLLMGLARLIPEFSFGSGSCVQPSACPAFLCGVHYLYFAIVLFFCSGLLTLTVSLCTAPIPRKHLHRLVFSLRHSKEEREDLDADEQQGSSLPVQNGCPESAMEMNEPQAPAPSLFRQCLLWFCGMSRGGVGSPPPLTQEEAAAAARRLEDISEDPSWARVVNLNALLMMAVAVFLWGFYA

SMILES | IC50 [nM]
OC[C@H]1S[C@@H](c2ccc(Cl)c(Cc3ccc4c(c3)OCCO4)c2)[C@H](O)[C@@H](O)[C@@H]1O [Example E047, (2S,3R,4R,5S,6R)-2-(4-Chloro-3-((2,3-dihydrobenzo[b][1,4]dioxin-6-yl)methyl)phenyl)-6-(hydroxymethyl)tetrahydro-2H-thiopyran-3,4,5-triol] | 4.17
COc1cc(Cl)c(Cc2ccc3c(c2)OCCO3)cc1[C@@H]1S[C@H](CO)[C@@H](O)[C@H](O)[C@H]1O [Example E048, (2S,3R,4R,5S,6R)-2-(4-Chloro-5-((2,3-dihydrobenzo[b][1,4]dioxin-6-yl)methyl)-2-methoxyphenyl)-6-(hydroxymethyl)tetrahydro-2H-thiopyran-3,4,5-triol] | 2.62
OC[C@H]1O[C@@H](c2ccc(Cl)c(Cc3ccc4c(c3)CCCC4)c2)[C@H](O)[C@@H](O)[C@@H]1O [Example E060, (2S,3R,4R,5S,6R)-2-(4-Chloro-3-((5,6,7,8-tetrahydronaphthalen-2-yl)methyl)phenyl)-6-(hydroxymethyl)-tetrahydro-2H-pyran-3,4,5-triol] | 2.99
OC[C@H]1O[C@@H](c2ccc(Cl)c(Cc3ccc4c(c3)CCCS4)c2)[C@H](O)[C@@H](O)[C@@H]1O [Example E061, (2S,3R,4R,5S,6R)-2-(4-Chloro-3-(thiochroman-6-ylmethyl)phenyl)-6-(hydroxymethyl)-tetrahydro-2H-pyran-3,4,5-triol] | 3.35
CC1(C)COc2cc(Cc3cc([C@@H]4O[C@H](CO)[C@@H](O)[C@H](O)[C@H]4O)ccc3Cl)ccc2O1 [Example E064, (2S,3R,4R,5S,6R)-2-(4-Chloro-3-((2,2-dimethyl-2,3-dihydrobenzo[b][1,4]dioxin-6-yl)methyl)phenyl)-6-(hydroxymethyl)-tetrahydro-2H-pyran-3,4,5-triol] | 5.78
CC1Cc2cc(Cc3cc([C@@H]4O[C@H](CO)[C@@H](O)[C@H](O)[C@H]4O)ccc3Cl)ccc2O1 (stereo partly drawn) [Example E065, (2S,3R,4R,5S,6R)-2-(4-Chloro-3-((2-methyl-2,3-dihydrobenzofuran-5-yl)methyl)phenyl)-6-(hydroxymethyl)-tetrahydro-2H-pyran-3,4,5-triol] | 7.62
OC[C@H]1O[C@@H](c2ccc(Cl)c(Cc3ccc4c(c3)SCO4)c2)[C@H](O)[C@@H](O)[C@@H]1O [Example E066, (2S,3R,4R,5S,6R)-2-(3-(Benzo[d][1,3]oxathiol-5-ylmethyl)-4-chlorophenyl)-6-(hydroxymethyl)-tetrahydro-2H-pyran-3,4,5-triol] | 3.67
OC[C@H]1O[C@@H](c2ccc(Cl)c(Cc3ccc4c(c3)OC=CO4)c2)[C@H](O)[C@@H](O)[C@@H]1O [Example E069] | 0.788
O=S1(=O)CCOc2ccc(Cc3cc([C@@H]4O[C@H](CO)[C@@H](O)[C@H](O)[C@H]4O)ccc3Cl)cc21 [Example E073, (2S,3R,4R,5S,6R)-2-(4-Chloro-3-((1,1-dioxo-2,3-dihydrobenzo[b][1,4]oxathiin-6-yl)methyl)phenyl)-6-(hydroxymethyl)-tetrahydro-2H-pyran-3,4,5-triol] | 78.5
CCOc1ccc(Cc2cc([C@@H]3O[C@H](CO)[C@@H](O)[C@H](O)[C@H]3O)cc(-c3ccccc3)c2C)cc1 [Example E077] | 3.84
Cc1c(Cc2ccc3c(c2)OCCO3)cc([C@@H]2O[C@H](CO)[C@@H](O)[C@H](O)[C@H]2O)cc1-c1ccccc1 [Example E084, (2S,3R,4R,5S,6R)-2-(5-((2,3-Dihydrobenzo[b][1,4]dioxin-6-yl)methyl)-6-methylbiphenyl-3-yl)-6-(hydroxymethyl)-tetrahydro-2H-pyran-3,4,5-triol] | 5.3
Cc1c(Br)cc([C@@H]2O[C@H](CO)[C@@H](O)[C@H](O)[C@H]2O)cc1Cc1ccc2c(c1)OCCO2 [Example E085, (2S,3R,4R,5S,6R)-2-(3-Bromo-5-((2,3-dihydrobenzo[b][1,4]dioxin-6-yl)methyl)-4-methylphenyl)-6-(hydroxymethyl)-tetrahydro-2H-pyran-3,4,5-triol] | 1.82
CCOc1ccc(Cc2cc([C@@H]3O[C@H](CO)[C@@H](O)[C@H](O)[C@H]3O)cc(-c3ccsc3)c2C)cc1 [Example E089, (2S,3R,4R,5S,6R)-2-(3-(4-Ethoxybenzyl)-4-methyl-5-(thiophen-3-yl)phenyl)-6-(hydroxymethyl)-tetrahydro-2H-pyran-3,4,5-triol] | 2.55
CCOc1ccc(Cc2cc([C@@H]3O[C@H](CO)[C@@H](O)[C@H](O)[C@H]3O)cc(-c3cccs3)c2C)cc1 [Example E090, (2S,3R,4R,5S,6R)-2-(3-(4-Ethoxybenzyl)-4-methyl-5-(thiophen-2-yl)phenyl)-6-(hydroxymethyl)-tetrahydro-2H-pyran-3,4,5-triol] | 3.73

Results, then the molecule that gave them:

IC50 [nM] | SMILES
275 | CCOc1ccc(Cc2cc([C@@H]3O[C@H](CO)[C@@H](O)[C@H](O)[C@H]3O)c3sccc3c2Cl)cc1 [Example E046, (2S,3R,4R,5S,6R)-2-(4-Chloro-5-(4-ethoxybenzyl)benzo[b]thiophen-7-yl)-6-(hydroxymethyl)tetrahydro-2H-pyran-3,4,5-triol]
1.23 | OC[C@H]1O[C@@H](c2ccc(Cl)c(Cc3ccc4c(c3)OCCO4)c2)[C@H](O)[C@@H](O)[C@@H]1O [Example E049, (2S,3R,4R,5S,6R)-2-(4-Chloro-3-((2,3-dihydrobenzo[b][1,4]dioxin-6-yl)methyl)phenyl)-6-(hydroxymethyl)-tetrahydro-2H-pyran-3,4,5-triol]
1.64 | OC[C@H]1O[C@@H](c2cc(Cc3ccc4c(c3)OCCO4)c(Cl)cc2O)[C@H](O)[C@@H](O)[C@@H]1O [Example E052, (2S,3R,4R,5S,6R)-2-(4-Chloro-5-((2,3-dihydrobenzo[b][1,4]dioxin-6-yl)methyl)-2-hydroxyphenyl)-6-(hydroxymethyl)-tetrahydro-2H-pyran-3,4,5-triol]
2.02 | Cc1ccc([C@@H]2O[C@H](CO)[C@@H](O)[C@H](O)[C@H]2O)cc1Cc1ccc2c(c1)OCCO2 [Example E054, (2S,3R,4R,5S,6R)-2-(3-((2,3-Dihydrobenzo[b][1,4]dioxin-6-yl)methyl)-4-methylphenyl)-6-(hydroxymethyl)-tetrahydro-2H-pyran-3,4,5-triol]
2.58 | OC[C@H]1O[C@@H](c2ccc(Cl)c(Cc3ccc4c(c3)OCO4)c2)[C@H](O)[C@@H](O)[C@@H]1O [Example E056, (2S,3R,4R,5S,6R)-2-(3-(Benzo[d][1,3]dioxol-5-ylmethyl)-4-chlorophenyl)-6-(hydroxymethyl)-tetrahydro-2H-pyran-3,4,5-triol]
2.15 | OC[C@H]1O[C@@H](c2ccc(Cl)c(Cc3ccc4c(c3)CCC4)c2)[C@H](O)[C@@H](O)[C@@H]1O [Example E057, (2S,3R,4R,5S,6R)-2-(4-Chloro-3-((2,3-dihydro-1H-inden-5-yl)methyl)phenyl)-6-(hydroxymethyl)-tetrahydro-2H-pyran-3,4,5-triol]
9.47 | OC[C@H]1O[C@@H](c2ccc(Cl)c(Cc3ccc4c(c3)COCO4)c2)[C@H](O)[C@@H](O)[C@@H]1O [Example E068, (2S,3R,4R,5S,6R)-2-(3-((4H-Benzo[d][1,3]dioxin-6-yl)methyl)-4-chlorophenyl)-6-(hydroxymethyl)-tetrahydro-2H-pyran-3,4,5-triol]
1.75 | OC[C@H]1O[C@@H](c2ccc(Cl)c(Cc3ccc4c(c3)SCCO4)c2)[C@H](O)[C@@H](O)[C@@H]1O [Example E072, (2S,3R,4R,5S,6R)-2-(4-Chloro-3-((2,3-dihydrobenzo[b][1,4]oxathiin-6-yl)methyl)phenyl)-6-(hydroxymethyl)-tetrahydro-2H-pyran-3,4,5-triol]
9.63 | CCc1ccc(Cc2cc([C@@H]3O[C@H](CO)[C@@H](O)[C@H](O)[C@H]3O)cc(-c3ccccc3)c2C)cc1 [Example E076]
93.3 | CCOc1ccc(Cc2cc([C@@H]3O[C@H](CO)[C@@H](O)[C@H](O)[C@H]3O)cc(-c3ccc(F)cc3)c2C)cc1 [Example E078]
15.4 | CCOc1ccc(Cc2cc([C@@H]3O[C@H](CO)[C@@H](O)[C@H](O)[C@H]3O)cc(-c3ccccc3Cl)c2C)cc1 [Example E086, (2S,3R,4R,5S,6R)-2-(6′-Chloro-5-(4-ethoxybenzyl)-6-methylbiphenyl-3-yl)-6-(hydroxymethyl)-tetrahydro-2H-pyran-3,4,5-triol]
38.9 | CCOc1ccc(Cc2cc([C@@H]3O[C@H](CO)[C@@H](O)[C@H](O)[C@H]3O)cc(-c3cccc(C#N)c3)c2C)cc1 [Example E087, 3′-(4-Ethoxybenzyl)-2′-methyl-5′-((2S,3R,4R,5S,6R)-3,4,5-trihydroxy-6-(hydroxymethyl)-tetrahydro-2H-pyran-2-yl)biphenyl-3-carbonitrile]
0.629 | CS[C@H]1O[C@@H](c2ccc(Cl)c(Cc3ccc4c(c3)OCCO4)c2)[C@H](O)[C@@H](O)[C@@H]1O [Example E091, (2S,3R,4R,5S,6R)-2-(4-Chloro-3-((2,3-dihydrobenzo[b][1,4]dioxin-6-yl)methyl)phenyl)-6-(methylthio)tetrahydro-2H-pyran-3,4,5-triol]
